Where “and” joins values, the source holds several entries; their conditions need not be identical. Equal values may be shown once.
Tests used:
[1] = system: CBA mice with radiation-induced hemo- and immunodepression; test: Radiation-induced hemo- and immunodepression in mice; type: in vivo, mouse; conditions: mice irradiated 1 Gy, 5 mg/kg IP daily for 7 days, day 8 post-exposure
Procedure: The study was designed to evaluate efficacy of 7-day daily administration of the test articles (with the dosing started 2 hours post-exposure) on the capability of the splenocytes from mice exposed to radiation to produce IL-2 and GM-CSF in vitro. In addition, the number of blood leukocytes and lymphocytes and the spleen and bone marrow cellularity (number of karyocytes), as well as splenic and medullary colony-stimulating capacity, were determined at 8 days post-exposure.
Male CBA mice (18 to 20 g body weight) were irradiated with single dose of 180 kV X-rays filtered with 0.5 mm Cu (at 15 mA, distance—70 cm, duration 2 min. and 28 sec.).
The total absorbed dose comprised approximately 1 Gy. Five groups of animals (with no less than 12 mice in each) were formed. Group description is represented below.
Injections were performed during 7 days: once a day, daily.
Twenty four hours after the completion of 7 day treatment course (on the 8th day after the irradiation). mice were euthanized and splenocyte cultures were aseptically prepared for assessment of spontaneous production of IL-2 and GM-CSF by the spleen lymphocytes in vitro.
Simultaneously, blood, spleen and marrow samples were collected for blood leukocyte and lymphocyte, and spleen and marrow nucleated cell counting.
Additionally, hemopoietic colony formation ability of spleen and bone marrow cells was, assessed by the method of direct count of colony forming units (CFU) in the spleens of irradiated CBA mice receiving intravenously spleen or bone marrow cells obtained from animals of control or test groups.

[2] = system: CBA mice with cyclophosphamide-induced hemo- and immunodepression; test: Cyclophosphamide-induced hemo- and immunodepression in mice; type: in vivo, mouse; conditions: 5 mg/kg IP daily for 5 days
Procedure: The study was designed to evaluate the effect of a 5-day long administration of the test articles on the capability of the CP-treated murine splenocytes to produce IL-2 and GM-CSF in vitro. In addition, the number of blood leukocytes and lymphocytes and the bone marrow cellularity (number of karyocytes) were determined at 8 days after CP administration. Some animals receiving CP were then challenged with sheep red blood cells (SRBC), and the humoral immune response to the antigen was evaluated.
Male CBA mice (18 to 20 g body weight) were given a single intraperitoneal injection of CP in a dose of 50 mg/kg. […] Group description is represented below.
Injections were performed during 5 days: once a day, daily.
Twenty four hours after the completion of 5 day treatment course (on the 8th day after the CP injection), mice were euthanized and splenocyte cultures were aseptically prepared for assessment of spontaneous production of IL-2 and GM-CSF by the spleen lymphocytes in vitro.
Simultaneously, blood and marrow samples were collected for blood leukocyte and lymphocyte, and marrow nucleated cell counted,
Serum samples from immunized animals were tested on level of SRBC agglutinins (the day 8 after the CP injection, and the day 7 after the immunization).

[3] = cyclophosphamide-treated mice, day 8 after CP

N[C@@H](CCC(=O)N[C@@H](CS)C(=O)NCC(=O)O)C(=O)O [GSH, γ-glutamyl-cysteinyl-glycine]
Blood leukocyte count [1]: 4.8 ± 10^9/L and 5.7 ± 10^9/L and 4.95 ± 10^9/L | Blood lymphocyte count [1]: 3.4 ± 10^9/L and 4.6 ± 10^9/L and 4.0 ± 10^9/L | Bone marrow CFU [1]: 22.1 and 25.6 and 25.3 | Bone marrow nucleated cell number [1]: 17.2 ± 10^6/L and 24.7 ± 10^6/L and 22.5 ± 10^6/L | IL-2 production by splenocytes [1]: 8.6 U/mL and 9.3 U/mL and 9.9 U/mL | Spleen CFU [1]: 56.3 and 66.3 and 59.8 | Spleen nucleated cell number [1]: 4.3 ± 10^7/L and 6.93 ± 10^7/L and 5.5 ± 10^7/L | SRBC agglutinin titer ([2]; cyclophosphamide-treated mice immunized with SRBC, day 7 after immunization): 1.94 log2 and 1.62 log2 and 2.09 log2 | Blood leukocyte count [2, 3]: 5.2 ± 10^9/L and 6.3 ± 10^9/L and 6.2 ± 10^9/L | Blood lymphocyte count [2, 3]: 4.3 ± 10^9/L and 4.6 ± 10^9/L and 5.31 ± 10^9/L | Bone marrow nucleated cell number [2, 3]: 32.2 ± 10^6/L and 36.4 ± 10^6/L | IL-2 production by splenocytes [2, 3]: 17.2 U/mL and 15.3 U/mL and 20.3 U/mL
